Measurements reported in article PMC8074941, “Synthesis of cyclotetrapeptide analogues of c-PLAI and evaluation of their antimicrobial properties” (Royal Society Open Science, 2021).
≈ marks a conversion by molar mass, not a printed value. Where a SMILES comes first, the peptide text is derived from it.

Columns and labels:
B. cereus ATCC 11778 = experiment: microbe, parasite or virus in culture; details: ATCC 11778, 18 h
Procedure: (§1) Tools and materials were sterilized in an autoclave for 15 min at 121°C. Bacterial culture was grown in agar media (Mueller Hinton agar) by picking some bacterial colony using an inoculating loop, followed by incubation at 37°C for 24 h. Bacterial culture was then suspended in liquid media (Mueller Hinton Broth). The suspended bacterial culture was then incubated at 37°C for 24 h and standardized equal to 0.5 Mc Farland (2 × 10^8 CFU ml^−1). The culture was diluted into the concentration of 5 × 10^5 CFU ml^−1.
(§2) Six tetrapeptides and six cyclotetrapeptides were dissolved in DMSO 2% with a concentration of 1 µg mL^−1. Each solution was dissolved gradually. Subsequently, 12 sample solutions, ciprofloxacin, nystatin, ketoconazole and DMSO 2% were incubated on a 96-well microplate at 37°C for 18 h. The result was interpreted using a spectrophotometer, with a wavelength of 600 nm. MIC was measured as the percentage of microbial inhibition and cell death.

E. coli ATCC 11229 = experiment: microbe, parasite or virus in culture; details: ATCC 11229, 18 h
Procedure: as §1, §2

K. pneumonia ATCC 2357 = experiment: microbe, parasite or virus in culture; details: ATCC 2357, 18 h
Procedure: as §1, §2

S. aureus ATCC 6538 = experiment: microbe, parasite or virus in culture; details: ATCC 6538, 18 h
Procedure: as §1, §2

C. albicans ATCC 10231 = details: ATCC 10231, 18 h
Procedure: (§3) Tools and materials were sterilized in an autoclave for 15 min at 121°C. Fungal culture was grown in agar media (Potato Dextrose agar) by picking some fungal colony using an inoculating loop, followed by incubation at 30°C for 24–48 h. Fungal culture was then suspended in liquid media (Potato Dextrose Broth). The suspended fungal culture was then incubated for 24–48 h at 30°C. The suspended fungal culture was then incubated at 30°C for 24 h and standardized equal to 0.5 Mc Farland (2 × 10^8 CFU ml^−1). The culture was diluted into the concentration of 5 × 10^5 CFU ml^−1.
as §2

T. mentagrophyte = experiment: microbe, parasite or virus in culture; details: 18 h
Procedure: as §3, §2

Candida albicans = details: synthetic product of solution-phase synthesis; strain not given; cited from earlier work
Procedure: (§4) c-PLAI [cyclo(pro-leu-ala-ile)] is a cyclotetrapeptide that was isolated by Rungprom and co-workers in 2008 from marine Pseudomonas sp., which was associated with the Japanese seaweed Diginea sp.. All the amino acid residues of c-PLAI were reported to be L-configured. […] Later, c-PLAI was successfully synthesized using a convergent solution-phase method. ... || The antimicrobial properties of all linear and cyclic tetrapeptides were evaluated (table 3). […] The lack of information regarding the microbial strains used in the previous report led us to the assumption that the use of different strains in the assay could lead to a differen ...

Klebsiella pneumoniae = details: synthetic product of solution-phase synthesis; strain not given; cited from earlier work
Procedure: as §4

Pseudomonas aeruginosa = details: synthetic product of solution-phase synthesis; strain not given; cited from earlier work
Procedure: as §4

[1] = system: Trichophyton mentagrophytes; details: synthetic product of solution-phase synthesis; strain not given; cited from earlier work
Procedure: as §4

Bacillus subtilis = details: c-PLAI isolated from marine Pseudomonas sp.; cited from earlier work
Text: (§5) c-PLAI [cyclo(pro-leu-ala-ile)] is a cyclotetrapeptide that was isolated by Rungprom and co-workers in 2008 from marine Pseudomonas sp., which was associated with the Japanese seaweed Diginea sp.. All the amino acid residues of c-PLAI were reported to be L-configured. […] Later, c-PLAI was successfully synthesized using a convergent solution-phase method. ...

Escherichia coli = details: c-PLAI isolated from marine Pseudomonas sp.; cited from earlier work
Text: as §5

Micrococcus luteus = details: c-PLAI isolated from marine Pseudomonas sp.; cited from earlier work
Text: as §5

Microsporum andouinii = details: synthetic product of solution-phase synthesis; strain not given; cited from earlier work
Text: as §5

Staphylococcus aureus = details: c-PLAI isolated from marine Pseudomonas sp.; cited from earlier work
Text: as §5

Vibrio anguillarum = details: c-PLAI isolated from marine Pseudomonas sp.; cited from earlier work
Text: as §5

CC[C@H](C)[C@@H]1NC(=O)[C@H](C)NC(=O)[C@H](CC(C)C)NC(=O)[C@@H]2CCCN2C1=O [c-PLAI, cyclo(pro-leu-ala-ile)] (cyclo(PLAI))
minimum inhibitory concentration (MIC) B. cereus ATCC 11778 (B. cereus ATCC 11778): 125 µg/mL (≈ 317 µM)
minimum inhibitory concentration (MIC) E. coli ATCC 11229 (E. coli ATCC 11229): 250 µg/mL (≈ 634 µM)
minimum inhibitory concentration (MIC) K. pneumonia ATCC 2357 (K. pneumonia ATCC 2357): 500 µg/mL (≈ 1270 µM)
minimum inhibitory concentration (MIC) S. aureus ATCC 6538 (S. aureus ATCC 6538): >1000 µg/mL
minimum inhibitory concentration (MIC) C. albicans ATCC 10231 (C. albicans ATCC 10231): >1000 µg/mL
minimum inhibitory concentration (MIC) T. mentagrophyte (T. mentagrophyte): 125 µg/mL (≈ 317 µM)
minimum inhibitory concentration (MIC) Candida albicans (Candida albicans): 6 µg/mL (≈ 15.2 µM)
minimum inhibitory concentration (MIC) Klebsiella pneumoniae (Klebsiella pneumoniae): 6 µg/mL (≈ 15.2 µM)
minimum inhibitory concentration (MIC) Pseudomonas aeruginosa (Pseudomonas aeruginosa): 6 µg/mL (≈ 15.2 µM)
minimum inhibitory concentration (MIC) Trichophyton mentagrophytes [1]: 6 µg/mL (≈ 15.2 µM)
antibacterial activity against Bacillus subtilis (Bacillus subtilis): inactive
antibacterial activity against Escherichia coli (Escherichia coli): inactive
antibacterial activity against Micrococcus luteus (Micrococcus luteus): inactive
minimum inhibitory concentration (MIC) Microsporum andouinii (Microsporum andouinii): 6 µg/mL (≈ 15.2 µM)
antibacterial activity against Staphylococcus aureus (Staphylococcus aureus): inactive
antibacterial activity against Vibrio anguillarum (Vibrio anguillarum): inactive
